Measurements as given in PubChem BioAssay (NCI).
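1) Cells in 96-well plates. 2) Compound, 48 h, 5 concentrations. 3) Linear interpolation between surrounding doses. 4) Unreached endpoint = highest concentration. GI50 = concentration required for 50% inhibition of growth. At the TGI there is no net growth.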

Columns and labels:
Assay in all cases: DTP human tumour cell line panel, 48 h
786-0 renal = tested on: 786-0 renal
M14 melanoma = tested on: M14 melanoma
IGROV1 ovarian = tested on: IGROV1 ovarian
CAKI-1 renal = tested on: CAKI-1 renal
EKVX NSCLC = tested on: EKVX NSCLC
DU-145 prostate = tested on: DU-145 prostate
KM12 colon = tested on: KM12 colon
A498 renal = tested on: A498 renal
NCI-H226 lung = tested on: NCI-H226 lung
ACHN renal = tested on: ACHN renal

Structure (SMILES) | GI50 (786-0 renal) | TGI (786-0 renal) | GI50 (M14 melanoma) | TGI (M14 melanoma) | GI50 (IGROV1 ovarian) | TGI (IGROV1 ovarian) | GI50 (CAKI-1 renal) | TGI (CAKI-1 renal) | GI50 (EKVX NSCLC) | TGI (EKVX NSCLC) | GI50 (DU-145 prostate) | TGI (DU-145 prostate) | GI50 (KM12 colon) | TGI (KM12 colon) | GI50 (A498 renal) | TGI (A498 renal) | GI50 (NCI-H226 lung) | TGI (NCI-H226 lung) | GI50 (ACHN renal) | TGI (ACHN renal)
COc1ccc(C(c2cc(OC)c(OC)c(OC)c2)n2cncn2)cc1O (centres undefined) | 0.474 µM | > 100 µM | 0.374 µM | > 100 µM | 0.959 µM | > 100 µM | 0.567 µM | > 100 µM | 2.24 µM | > 100 µM | 0.531 µM | > 100 µM | 0.418 µM | > 100 µM | 0.324 µM | 0.957 µM | 1.43 µM | > 100 µM | 0.653 µM | > 100 µM
COc1c2ccccc2c(OC)c2[nH]c(=O)ccc12 | 56.1 µM | > 100 µM | 0.843 µM | 2.37 µM | 5.73 µM | > 100 µM | 16.2 µM | > 90.6 µM | 2.83 µM | > 100 µM | 1.54 µM | 3.32 µM | 3.11 µM | > 27.5 µM | 2.04 µM | 4.75 µM | 2.37 µM | 7.22 µM | 7.92 µM | > 100 µM
Nc1nc2[nH]cc(CCc3ccc(C(=O)N[C@@H](CCC(=O)O)C(=O)O)cc3)c2c(=O)[nH]1 | 0.0611 µM | > 100 µM | 0.158 µM | > 100 µM | – | > 100 µM | 0.0845 µM | > 100 µM | – | > 100 µM | – | > 100 µM | – | > 100 µM | 0.124 µM | > 100 µM | – | > 100 µM | 0.129 µM | > 100 µM
COC(=O)/C=C/c1cc(OC(C)=O)c2c(c1)[C@@H](C(=O)OC)[C@H](c1ccc(OC(C)=O)c(OC(C)=O)c1)O2 | 0.0958 µM | > 100 µM | 0.0338 µM | 39 µM | 0.176 µM | 38.3 µM | 0.314 µM | 44.7 µM | 2.38 µM | > 94.3 µM | 0.0636 µM | – | 0.203 µM | 18.7 µM | 1.01 µM | 7.97 µM | 1.71 µM | 27.4 µM | 0.0705 µM | 52.5 µM
NC(=S)N/N=C1\c2cc(Cl)ccc2-c2c1cc(Cl)cc2[N+](=O)[O-] | 5.41 µM | 91.3 µM | 3.27 µM | > 100 µM | 5.68 µM | > 100 µM | 7.21 µM | > 100 µM | 4.65 µM | 95.6 µM | 10.8 µM | > 100 µM | 5.14 µM | 88.8 µM | 1.38 µM | 8.57 µM | 5.25 µM | > 100 µM | 4.81 µM | > 100 µM
CN1CCN(C(=O)COc2ccc(C34CC5CC(CC(C5)C3)C4)cc2)CC1 | 11.3 µM | 23.5 µM | 15.3 µM | 30.7 µM | 15 µM | 39.2 µM | 15.6 µM | 30.2 µM | 24.6 µM | > 100 µM | 19 µM | 55.7 µM | 14.8 µM | 32.4 µM | 15.2 µM | 30.5 µM | 14 µM | 37.4 µM | 17.2 µM | 39.5 µM
COc1ccccc1NC(=O)c1cc2cc(Br)ccc2cc1O | 3.52 µM | 11.2 µM | 3.01 µM | 11.9 µM | 1.6 µM | 6.56 µM | 1.42 µM | 4.69 µM | 1.77 µM | 8.1 µM | 3.28 µM | 14 µM | 3.17 µM | 10.8 µM | 2.96 µM | 11 µM | 1.65 µM | 6.06 µM | 2.52 µM | 7.21 µM
CC(=O)Nc1cc2ccc(=O)oc2cc1Cl | – | > 100 µM | – | > 100 µM | – | > 100 µM | – | > 100 µM | – | > 100 µM | – | > 100 µM | – | > 100 µM | – | > 100 µM | – | > 100 µM | – | > 100 µM
C=C1C(=O)O[C@H]2[C@H]1CC/C(CNC(=O)c1cc3ccccc3[nH]1)=C\CC[C@@]1(C)O[C@@H]21 | 1.69 µM | 3.43 µM | 1.12 µM | 2.81 µM | 1.32 µM | 5.4 µM | 1.27 µM | 4.26 µM | 2.11 µM | 8.04 µM | 0.575 µM | 1.87 µM | 2.08 µM | 5 µM | 3.15 µM | 6.69 µM | 2.58 µM | 10.7 µM | 1.26 µM | 3.07 µM
NC(N)=NS(=O)(=O)c1ccc(N=Nc2c(O)c(C(=O)O)cc3ccccc23)cc1 | – | > 100 µM | – | > 100 µM | – | > 100 µM | – | > 100 µM | – | > 100 µM | – | > 100 µM | – | > 100 µM | – | – | – | > 100 µM | – | > 100 µM
CC1(C)[C@@H](NOCCCN)CC[C@]2(C)[C@H]3C(=O)C=C4[C@@H]5C[C@](C)(C(=O)O)CC[C@]5(C)CC[C@@]4(C)[C@]3(C)CC[C@@H]12 | 6.23 µM | 19.2 µM | 8.46 µM | 28.8 µM | 12.2 µM | 24.6 µM | 2.44 µM | 6.26 µM | 14 µM | 44.8 µM | 4.63 µM | 15.4 µM | 3.27 µM | 12.6 µM | 17.8 µM | 43 µM | 5.46 µM | 19.2 µM | 7.87 µM | 21.2 µM
CN(C)CC(O)c1ccc(/C=C/c2ccc(Cl)cc2)cc1 (centres undefined) | 1.63 µM | 2.99 µM | 1.67 µM | 3.11 µM | 1.21 µM | 2.64 µM | 0.706 µM | 2.05 µM | 1.34 µM | 3.19 µM | 1.52 µM | 2.85 µM | 1.66 µM | 3.03 µM | 1.37 µM | 2.66 µM | 11.9 µM | 27.3 µM | 1.63 µM | 3.01 µM
COc1ccc(CN2C(=O)C(Cl)=C(Nc3cccc(C(F)(F)F)c3)C2=O)cc1 | 8.02 µM | 30.1 µM | – | – | – | – | 5.16 µM | 24.4 µM | 8.34 µM | 68.7 µM | 8.19 µM | 21.6 µM | 7.83 µM | 25.6 µM | 2.61 µM | 9.02 µM | 2.57 µM | 17.4 µM | 6.71 µM | 20.5 µM
